Experimental data from patent US20140349989A1, “COMPOUNDS AND THERAPEUTIC USES THEREOF” (Alzheimer's Institute of America, priority 2011, published 2014).

Experiment: Cytotoxicity Assay (HCT116, CellTiter-Glo)
Format: cell-based
Conditions: human, HCT116 cell cytotoxicity IC50
Protocol: HCT116 cells were seeded in 96 well plates (Greiner Bio-One, Monroe, N.C.) and allowed to settle overnight. Test compound dissolved in dimethyl sulfoxide (DMSO) was added and drug incubation proceeded for 72 hours. When applicable, a 1000× solution of nicotinic acid (NA; Sigma-Aldrich, St. Louis, Mo.) dissolved in water was generated, and 1×NA (10 μM final concentration) was added at the same time as the test compound. After 72 hour, 50 μL of CellTiter-Glo Luminescent Cell Viability Assay reagent (Promega Corporation, Madison, Wis.) was added to cells in 200 μL of cellular media. After a proscribed incubation period, luminescence was measured using a TopCount NXT plate reader (PerkinElmer, Waltham, Mass.).

Row | SMILES | IC50 at 72 h
1 | O=C(NCc1cccnc1)Nc1ccc(-n2nc(C(=O)N3CCC(N4CCCC4)CC3)cc2C2CC2)cc1 [Compound 74, 1-[4-(5-Cyclopropyl-3-{[4-(pyrrolidin-1-yl)piperidin-1-yl]carbonyl}-1H-pyrazol-1-yl)phenyl]-3-(pyridin-3-ylmethyl)urea] | ≥ 100 nM
2 | Cc1c(Cc2ccc(F)cc2)c(C(=O)N2CCC(N3CCCCC3)CC2)nn1-c1ccc(NC(=O)NCc2cccnc2)cc1 [Compound 81, 1-{4-[3-(1,4′-Bipiperidin-1′-ylcarbonyl)-4-(4-fluorobenzyl)-5-methyl-1H-pyrazol-1-yl]phenyl}-3-(pyridin-3-ylmethyl)urea] | ≥ 100 nM
3 | O=C(NCc1cccnc1)Nc1ccc(-n2c(Cl)c(C(=O)N3CCC(n4ccnc4)CC3)c3ccccc32)cc1 [Compound 127, 1-[4-(2-Chloro-3-{[4-(1H-imidazol-1-yl)piperidin-1-yl]carbonyl}-1H-indol-1-yl)phenyl]-3-(pyridin-3-ylmethyl)urea] | < 100 nM
4 | O=C(NCc1cccnc1)Nc1ccc(-n2cc(C3CCN(CCO)CC3)c3ccccc32)cc1 [Compound 129, 1-(4-{3-[1-(2-Hydroxy-ethyl)piperidin-4-yl]-1H-indol-1-yl}phenyl)-3-(pyridin-3-ylmethyl)urea] | ≥ 100 nM
5 | Cc1c(C(=O)N2CCC(n3ccnc3)CC2)c2ccccc2n1-c1ccc(NC(=O)NCc2cccnc2)cc1 [Compound 48, 1-[4-(3-{[4-(1H-Imidazol-1-yl)piperidin-1-yl]carbonyl}-2-methyl-1H-indol-1-yl)phenyl]-3-(pyridin-3-ylmethyl)urea] | ≥ 100 nM
6 | O=C(NCc1cccnc1)Nc1ccc(-n2nc(C#CCN3CCOCC3)c3ccccc32)cc1 [Compound 42, 1-(4-{3-[3-(Morpholin-4-yl)prop-1-yn-1-yl]-1H-indazol-1-yl}phenyl)-3-(pyridin-3-ylmethyl)urea] | < 100 nM

Same assay, conditions: human, HCT116 cells, 72 hours drug incubation, CellTiter-Glo luminescence; read-out: HCT116 cell cytotoxicity IC50

Row | SMILES | IC50 at 72 h
7 | O=C(/C=C/c1ccc(-n2nc(C(=O)N3CCC(N4CCOCC4)CC3)c3ccccc32)cc1)NCc1cccnc1 [Compound 171, (2E)-3-[4-(3-{[4-(Morpholin-4-yl)piperidin-1-yl]carbonyl}-1H-indazol-1-yl)phenyl]-N-(pyridin-3-ylmethyl)prop-2-enamide] | < 100 nM
8 | COC(=O)c1cn(Cc2ccccc2)c2cc(NC(=O)NCc3cccnc3)ccc12 [Compound 83, Methyl 1-benzyl-6-{[(pyridin-3-ylmethyl)carbamoyl]ami-no}-1H-indole-3-carboxylate] | ≥ 100 nM
9 | C[C@@H]1CN(CCc2cn(-c3ccc(NC(=O)NCc4cccnc4)cc3)c3ccccc23)C[C@H](C)O1 [Compound 53, 1-[4-(3-{2-[(2R,6S)-2,6-Dimethyl-morpholin-4-yl]ethyl}-1H-indol-1-yl)phenyl]-3-(pyridin-3-ylmethyl)urea] | < 100 nM
10 | O=C(NCc1cccnc1)Nc1ccc(-n2c(Cl)c(C(=O)N3CCN(C4CCCCC4)CC3)c3ccccc32)cc1 [Compound 70, 1-(4-{2-Chloro-3-[(4-cyclohexyl-piperazin-1-yl)carbonyl]-1H-indol-1-yl}phenyl)-3-(pyridin-3-ylmethyl)urea] | < 100 nM
11 | CCOC(=O)c1cn(CCCCNC(=O)NCc2cccnc2)c2ccccc12 [Compound 45, Ethyl 1-(4-{[(pyridin-3-ylmethyl)carbamoyl]amino}butyl)-1H-indole-3-carboxylate] | < 100 nM
12 | CN(C)CC(=O)N1CCC2(CC1)CN(c1ccc(NC(=O)NCc3cccnc3)cc1)c1ccccc12 [Compound 112, 1-{4-[1′-(N,N-Dimethylglycyl)spiro[indole-3,4′-piperidin]-1(2H)-yl]phenyl}-3-(pyridin-3-ylmethyl)urea] | < 100 nM
13 | O=C(/C=C/c1ccc(-n2cc(CCN3CCOCC3)c3ccccc32)nc1)NCc1cccnc1 [Compound 179, (2E)-3-(6-{3-[2-(Morpholin-4-yl)ethyl]-1H-indol-1-yl}pyridin-3-yl)-N-(pyridin-3-ylmethyl)prop-2-enamide] | < 100 nM
14 | Cc1c(C(=O)N2CCC(O)CC2)c2ccccc2n1-c1ccc(NC(=O)NCc2cccnc2)cc1 [Compound 108, 1-(4-{3-[(4-Hydroxypiperidin-1-yl)carbonyl]-2-methyl-1H-indol-1-yl}phenyl)-3-(pyridin-3-yl-methyl)urea] | < 100 nM
15 | CN(C)C1CCN(C(=O)c2nn(-c3ccc(/C=C/C(=O)NCc4cccnc4)cc3)c3ccccc23)C1 (stereo not shown) [Compound 166, (2E)-3-[4-(3-{[3-(Dimethylamino)pyrrolidin-1-yl]carbonyl}-1H-indazol-1-yl)phenyl]-N-(pyridin-3-ylmethyl)prop-2-enamide] | < 100 nM
16 | O=C(NCc1cccnc1)Nc1ccc(-n2nc(CC(=O)N3CCCCC3)c3ccccc32)cc1 [Compound 84, 1-(4-{3-[2-Oxo-2-(piperidin-1-yl)ethyl]-1H-indazol-1-yl}phenyl)-3-(pyridin-3-ylmethyl)urea] | < 100 nM
17 | O=C(NCc1cncc(F)c1)Nc1ccc(-n2cc(CCN3CCOCC3)c3ccccc32)cc1 [Compound 103, 1-[(5-Fluoro-pyridin-3-yl)methyl]-3-(4-{3-[2-(morpholin-4-yl)ethyl]-1H-indol-1-yl}phenyl)urea] | < 100 nM
18 | O=C(CCc1ccc(-n2cc(CCN3CCOCC3)c3ccccc32)cc1)NCc1cccnc1 [Compound 180, 3-(4-{3-[2-(Morpholin-4-yl)ethyl]-1H-indol-1-yl}phenyl)-N-(pyridin-3-ylmethyl)propanamide] | < 100 nM
19 | O=C(NCCCCCCC1CNc2ccccc21)NCc1cccnc1 (stereo not shown) [Compound 97, 1-[6-(2,3-Dihydro-1H-indol-3-yl)hexyl]-3-(pyridin-3-ylmethyl)urea] | < 100 nM
20 | COc1cccc(-c2cn(-c3ccc(NC(=O)NCc4cccnc4)cc3)nc2C(=O)N2CCC(N3CCCCC3)CC2)c1 [Compound 85, 1-{4-[3-(1,4′-Bipiperidin-1′-ylcarbonyl)-4-(3-methoxyphenyl)-1H-pyrazol-1-yl]phenyl}-3-(pyridin-3-ylmethyl)urea] | < 100 nM
21 | O=C(NCc1cccnc1)Nc1ccc(-n2cc([C@H]3CC[C@@H](N4CC(F)(F)C4)CC3)c3ccccc32)cc1 [Compound 94, 1-[4-[3-[4-(3,3-difluoroazetidin-1-yl)cyclohexyl]indol-1-yl]phenyl]-3-(3-pyridylmethyl)urea] | < 100 nM
22 | Cc1c(-c2ccccc2)c(C(=O)N2CCC(N3CCCCC3)CC2)nn1-c1ccc(NC(=O)NCc2cccnc2)cc1 [Compound 73, 1-{4-[3-(1,4′-Bipiperidin-1′-ylcarbonyl)-5-methyl-4-phenyl-1H-pyrazol-1-yl]phenyl}-3-(pyridin-3-ylmethyl)urea] | < 100 nM
23 | O=C(NCCCCCn1cc(C(=O)N2CCN(C3CCCCC3)CC2)c2ccccc21)NCc1cncs1 [Compound 124, 1-(5-{3-[(4-Cyclohexyl-piperazin-1-yl)carbonyl]-1H-indol-1-yl}pentyl)-3-(1,3-thiazol-5-ylmethyl) urea] | < 100 nM
24 | O=C(NCc1cccnc1)Nc1ccc(-n2nc(N3CCN(C4CCCCC4)CC3)c3ccccc32)cc1 [Compound 86, 1-{4-[3-(4-Cyclo-hexylpiperazin-1-yl)-1H-indazol-1-yl]phenyl}-3-(pyridin-3-ylmethyl)urea] | < 100 nM
25 | CC(C)(C)OC(=O)N1CCC(CCn2ccnc2-c2cn(-c3ccc(NC(=O)NCc4cccnc4)cc3)c3ccccc23)CC1 [Compound 87, tert-Butyl 4-(2-{2-[1-(4-{[(pyridin-3-yl-methyl)carbamoyl]amino}phenyl)-1H-indol-3-yl]-1H-imidazol-1-yl}ethyl)piperidine-1-carboxylate] | < 100 nM
